Experimental data published in PubChem BioAssay AID1259407 (Chemical Carcinogenesis Research Information System (CCRIS), 2018).
Entries after “also recorded” stand apart in the source; their conditions may differ. Calls of active or inactive are those of the source. No rule for the calls is given here.

Tested on: CCRIS mutagenicity, Ames/micronucleus/aberration tests
Assay: CCRIS mutagenicity studies
[1] = Test System: AMES SALMONELLA TYPHIMURIUM, Strain/Indicator: TA98, Metabolic Activation: NONE, Method: PREINCUBATION
[2] = Test System: AMES SALMONELLA TYPHIMURIUM, Strain/Indicator: TA100, Metabolic Activation: NONE, Method: PREINCUBATION
[3] = Test System: AMES SALMONELLA TYPHIMURIUM, Strain/Indicator: TA1535, Metabolic Activation: NONE, Method: PREINCUBATION
[4] = Test System: AMES SALMONELLA TYPHIMURIUM, Strain/Indicator: TA1537, Metabolic Activation: NONE, Method: PREINCUBATION
[5] = Test System: AMES SALMONELLA TYPHIMURIUM, Strain/Indicator: TA98, Metabolic Activation: HAMSTER, LIVER, S-9, AROCLOR 1254 (30%), Method: PREINCUBATION
[6] = Test System: AMES SALMONELLA TYPHIMURIUM, Strain/Indicator: TA98, Metabolic Activation: RAT, LIVER, S-9, AROCLOR 1254 (30%), Method: PREINCUBATION
[7] = Test System: AMES SALMONELLA TYPHIMURIUM, Strain/Indicator: TA100, Metabolic Activation: HAMSTER, LIVER, S-9, AROCLOR 1254 (30%), Method: PREINCUBATION
[8] = Test System: AMES SALMONELLA TYPHIMURIUM, Strain/Indicator: TA100, Metabolic Activation: RAT, LIVER, S-9, AROCLOR 1254 (30%), Method: PREINCUBATION

## OCC(Br)CBr (stereo not drawn)
Test System: AMES SALMONELLA TYPHIMURIUM, Strain/Indicator: TA98, Metabolic Activation: HAMSTER, LIVER, S-9, AROCLOR 1254 (10%), Method: PREINCUBATION
  mutagenic call: active; positive
[1]
  mutagenic call: active; positive
Test System: AMES SALMONELLA TYPHIMURIUM, Strain/Indicator: TA98, Metabolic Activation: RAT, LIVER, S-9, AROCLOR 1254 (10%), Method: PREINCUBATION
  mutagenic call: active; positive
Test System: AMES SALMONELLA TYPHIMURIUM, Strain/Indicator: TA100, Metabolic Activation: HAMSTER, LIVER, S-9, AROCLOR 1254 (10%), Method: PREINCUBATION
  mutagenic call: active; positive
[2]
  mutagenic call: active; positive
Test System: AMES SALMONELLA TYPHIMURIUM, Strain/Indicator: TA100, Metabolic Activation: RAT, LIVER, S-9, AROCLOR 1254 (10%), Method: PREINCUBATION
  mutagenic call: active; positive
Test System: AMES SALMONELLA TYPHIMURIUM, Strain/Indicator: TA100, Metabolic Activation: RAT, LIVER, S-9, AROCLOR 1254, Method: STANDARD PLATE
  mutagenic call: active; positive
Test System: AMES SALMONELLA TYPHIMURIUM, Strain/Indicator: TA102, Metabolic Activation: S-9, Method: STANDARD PLATE
  mutagenic call: active; positive
Test System: AMES SALMONELLA TYPHIMURIUM, Strain/Indicator: TA1535, Metabolic Activation: HAMSTER, LIVER, S-9, AROCLOR 1254 (10%), Method: PREINCUBATION
  mutagenic call: active; positive
[3]
  mutagenic call: active; positive
Test System: AMES SALMONELLA TYPHIMURIUM, Strain/Indicator: TA1535, Metabolic Activation: RAT, LIVER, S-9, AROCLOR 1254 (10%), Method: PREINCUBATION
  mutagenic call: active; positive
Test System: AMES SALMONELLA TYPHIMURIUM, Strain/Indicator: TA1535, Metabolic Activation: RAT, LIVER, S-9, AROCLOR 1254, Method: STANDARD PLATE
  mutagenic call: active; positive
Test System: AMES SALMONELLA TYPHIMURIUM, Strain/Indicator: TA1537, Metabolic Activation: HAMSTER, LIVER, S-9, AROCLOR 1254 (10%), Method: PREINCUBATION
  mutagenic call: inactive; negative
[4]
  mutagenic call: inactive; negative
Test System: AMES SALMONELLA TYPHIMURIUM, Strain/Indicator: TA1537, Metabolic Activation: RAT, LIVER, S-9, AROCLOR 1254 (10%), Method: PREINCUBATION
  mutagenic call: inactive; negative
Test System: AMES SALMONELLA TYPHIMURIUM, Strain/Indicator: TA2638, Metabolic Activation: S-9, Method: STANDARD PLATE
  mutagenic call: active; positive
Test System: E. COLI, Strain/Indicator: WP2 (PKM101), Metabolic Activation: S-9, Method: STANDARD PLATE
  mutagenic call: active; positive
Test System: E. COLI, Strain/Indicator: WP2 UVRA (PKM101), Metabolic Activation: S-9, Method: STANDARD PLATE
  mutagenic call: active; positive
Test System: MOUSE LYMPHOMA, Strain/Indicator: L5178Y (TK+/TK-), Metabolic Activation: NONE, Method: SUSPENSION/PLATE
  mutagenic call: active; positive

## COc1cc(N)ccc1C
[5]
  mutagenic call: active; positive
[1]
  mutagenic call: inactive; negative
[6]
  mutagenic call: active; positive
[7]
  mutagenic call: active; positive
[2]
  mutagenic call: inactive; negative
[8]
  mutagenic call: active; positive

## COc1ccc(C)cc1N
End Point: In vitro chromosomal aberrations, Test System: Chinese hamster lung (CHL/IU) cells, Metabolic Activation: None
  mutagenic call: active; positive (structural changes). toxicity at 1.2 mg/ml; also recorded: active; positive (structural changes). toxicity at 0.60 mg/ml; also recorded: active; positive (structural changes). toxicity at 0.8 mg/ml; no dose response observed
End Point: In vitro chromosomal aberrations, Test System: Chinese hamster lung (CHL/IU) cells, Metabolic Activation: Rat, Liver, S9, Phenobarbital and 5,6-benzoflavone
  mutagenic call: active; positive (structural changes and ploidy). toxicity at 1.2 mg/ml; no dose respons
End Point: In vivo micronucleus, Test System: Polychromatic erythrocytes, Species: Mouse, Strain/Sex: C57BL/6TacBr-[KO]p53[TSG-p53], Route: Oral
  mutagenic call: active; positive at all days
[5]
  mutagenic call: active; positive
Test System: AMES SALMONELLA TYPHIMURIUM, Strain/Indicator: TA98, Metabolic Activation: HAMSTER, LIVER, S-9, PHENOBARBITAL AND BETA-NAPHTHOFLAVONE, Method: PREINCUBATION
  mutagenic call: active; positive
[1]
  mutagenic call: inactive; negative
[6]
  mutagenic call: active; positive
[7]
  mutagenic call: active; positive
Test System: AMES SALMONELLA TYPHIMURIUM, Strain/Indicator: TA100, Metabolic Activation: HAMSTER, LIVER, S-9, PHENOBARBITAL AND BETA-NAPHTHOFLAVONE, Method: PREINCUBATION
  mutagenic call: active; positive
[2]
  mutagenic call: inactive; negative
[8]
  mutagenic call: active; positive
Test System: AMES SALMONELLA TYPHIMURIUM, Strain/Indicator: TA1535, Metabolic Activation: HAMSTER, LIVER, S-9, PHENOBARBITAL AND BETA-NAPHTHOFLAVONE, Method: PREINCUBATION
  mutagenic call: inactive; negative
[3]
  mutagenic call: inactive; negative
Test System: AMES SALMONELLA TYPHIMURIUM, Strain/Indicator: TA1537, Metabolic Activation: HAMSTER, LIVER, S-9, PHENOBARBITAL AND BETA-NAPHTHOFLAVONE, Method: PREINCUBATION
  mutagenic call: active; positive
[4]
  mutagenic call: inactive; negative
Test System: E. COLI, Strain/Indicator: WP2UVRA, Metabolic Activation: HAMSTER, LIVER, S-9, PHENOBARBITAL AND BETA-NAPHTHOFLAVONE, Method: PREINCUBATION
  mutagenic call: inactive; negative
Test System: E. COLI, Strain/Indicator: WP2 UVRA, Metabolic Activation: HAMSTER, LIVER, S-9, Method: STANDARD PLATE
  mutagenic call: inactive; negative
Test System: E. COLI, Strain/Indicator: WP2 UVRA, Metabolic Activation: MOUSE, LIVER, S-9, AROCLOR 1254, Method: STANDARD PLATE
  mutagenic call: inactive; negative
Test System: E. COLI, Strain/Indicator: WP2UVRA, Metabolic Activation: NONE, Method: PREINCUBATION
  mutagenic call: inactive; negative
Test System: E. COLI, Strain/Indicator: WP2 UVRA, Metabolic Activation: NONE, Method: STANDARD PLATE
  mutagenic call: inactive; negative
Test System: E. COLI, Strain/Indicator: WP2 UVRA, Metabolic Activation: RAT, LIVER, S-9, AROCLOR 1254, Method: STANDARD PLATE
  mutagenic call: inactive; negative
Test System: E. COLI, Strain/Indicator: WP2 UVRA, Metabolic Activation: RAT, LIVER, S-9, Method: STANDARD PLATE
  mutagenic call: inactive; negative
Test System: UDS RODENT HEPATOCYTES, Strain/Indicator: THY INCORP (NON-S-PHASE), Metabolic Activation: NONE, Method: AUTORADIOGRAPHY
  mutagenic call: inactive; negative
